Source: patent publication US20240208939A1, “TREATMENT OF AUTOIMMUNE AND INFLAMMATORY DISORDERS WITH INHIBITORS OF BET FAMILY BDII BROMODOMAIN” (POSEIDON INNOVATION 1, INC., priority 2022, published 2024)

Key:
BRD4 BD2 = target: T1, BRD4 BD2 (Homo sapiens, UniProt O60885); experiment: Target Engagement Intracellular BET BRD Assay (NanoBRET); assay type: cell-based; settings: read-out: BRD4 BD2 TE IC50
T1 construct: BD2 TE; expressed in transfected cells
Experimental: 3× Complete Substrate plus Inhibitor Solution in Assay Medium (Opti-MEM® I Reduced Serum Medium, no phenol red, and no serum) was prepared just before measuring BRET. This solution consisted of a 1:166 dilution of NanoBRET™ Nano-Glo® Substrate plus a 1:500 dilution of Extracellular NanoLuc® Inhibitor in Assay Medium. For a 96-well plate, 30 μl of NanoBRET™ Nano-Glo® Substrate, 10 μl of Extracellular NanoLuc® Inhibitor and 4,960 μl of Assay Medium were mixed to produce 5 ml of 3× Complete Substrate plus Inhibitor Solution, followed with gently mixing by inversion 5-10 times in a conical tube. (The final concentration of Extracellular NanoLuc® Inhibitor in the 3× solution was 60 μM, for a working concentration of 20 μM. Use 3× Complete Substrate plus Inhibitor Solution within 2 hours. Discard any remaining solution).
50 μl of 3× Complete Substrate plus Inhibitor Solution were added to each well of the 96-well plate, followed by incubation for 2-3 minutes at room temperature. Donor emission wavelength (e.g., 450 nm) and acceptor emission wavelength (e.g., 610 nm) were measured by using the GloMax® Discover System or other NanoBRET™ Assay-compatible luminometer (it is recommended measuring BRET within 10 minutes after adding NanoBRET™ Nano-Glo™ Substrate plus Extracellular NanoLuc® Inhibitor Solution. However, BRET can be measured for up to 2 hours, but there will be some loss of luminescence signal).
To generate raw BRET ratio values, the acceptor emission value (e.g., 610 nm) was divided by the donor emission value (e.g., 450 nm) for each sample [to correct for background, the BRET ratio was substracted in the absence of tracer (average of no-tracer control samples) from the BRET ratio of each sample]. Raw BRET units were converted to milliBRET units (mBU) by multiplying each raw BRET value by 1,000. NanoBRET™ ratio equation, including optional background correction is shown below:
BRET Ratio=[(Acceptorsample÷Donorsample)−(Acceptorno-tracer control÷Donorno-tracer control)]×1,000.

MCP-1 = experiment: PBMC MCP-1 HTRF Assay; assay type: cell-based; settings: LPS 200 ng/mL, 24 hours
Experimental: The cryopreserved PBMC cells were thawed in a 37° C. water bath immediately after taking out from liquid nitrogen storage. A sterile pipette was used to transfer the content to sterile […] centrifuge tube containing […] of complete growth medium (Gibico 1640) and centrifuge at 300×g for 10 min. Supernatant was discarded, and cell pellet was resuspended in 10 mL of complete growth media in a sterile 15 mL tube. The cells were rested for 1 h at 37° C. (1×10^6 cells/mL). The cells were spinned down at 300×g for 10 minutes after 1 h. Supernatant was discard, and cell pellet was resuspended in complete growth medium, the cells number and viability were measured by AO/PI staining. In a 384-well white plate, PBMCs at 25 k cells/well (15 μl per well) were seeded with Gibico 1640 medium. The compound stock was serial diluted into […] by 3-fold dilution. 20 nL DMSO, 20 nL test compounds DMSO stock (serial diluted) were transferred in assay plate by using ECHO550, incubate for 30 min at 37° C., 5% CO2. LPS was diluted by Gibico 1640 medium.add 5 μl per well. The final concentration (200 ng/mL) was incubated for 24 hours at 37° C. with 5% CO2.
For MCP-1 HTRF, 2.5 μl/well MCP-1 donor antibody and 2.5 μl/well MCP-1 acceptor antibody were added into 384 well plate, following by centrifuging at 190×g for 1 min and incubating at room temperature for 2 h. The plate was read on the Envision.

[1] = tested on: IMQ-mouse model of psoriasis; experiment: IMQ induced psoriasis mouse model, PASI scoring; assay type: in vivo, mice; settings: daily dosing po, compared to vehicle treatment
Experimental: Except for the control group, all other groups received a daily topical dose of 60 mg of 5% commercially available IMQ cream on the shaved back for 7 consecutive days. The same amount of Vaseline was applied to the same areas of the animals in the negative control group. Vehicle and DF-6129 were dosed daily (po) for 8 days, from Day −1 to Day 7. Dosing time: 1 hour prior to IMQ application. Psoriasis Area and Severity Index (PASI) Scoring The Psoriasis Area and Severity Index (PASI) scoring system was used to evaluate the severity of skin inflammation of the mouse model. Erythema, scaling, and skin thickness was scored independently from 0-4 as (daily scoring) as below: [table] All statistical analysis were conducted, and the level of significance was set at P<0.05. The group means and standard deviation were calculated for all measurement parameters as study designed. One-way ANOVA comparisons among the groups was performed with software SPSS 16.0.

IL-17 = experiment: Serum IL-17 ELISA in IMQ-mouse model of psoriasis; assay type: in vivo, mice; settings: compared to vehicle treatment alone, 4 h post last dosing on day 7
Experimental: Except for the control group, all other groups received a daily topical dose of 60 mg of 5% commercially available IMQ cream on the shaved back for 7 consecutive days. The same amount of Vaseline was applied to the same areas of the animals in the negative control group. Vehicle and DF-6129 were dosed daily (po) for 8 days, from Day −1 to Day 7. Dosing time: 1 hour prior to IMQ application. Animals were euthanized 4 h post last dosing on day 7 (3 h after applying with imiquimod cream). Whole Blood was collected via cardiac puncture from all group animals. Serum samples were separated by centrifugation at 4° C. at 8000 g for 5 minutes, total 70 samples. All serum samples were stored at −80° C. for IL-17 analysis. All statistical analysis were conducted, and the level of significance was set at P<0.05. The group means and standard deviation were calculated for all measurement parameters as study designed. One-way ANOVA comparisons among the groups was performed with software SPSS 16.0.

IL-17A = experiment: Back skin PCR analysis in IMQ-treated mice, IL-17A mRNA; assay type: in vivo; settings: 10 mg/kg, compared with vehicle treatment alone
Experimental: (§1) Except for the control group, all other groups received a daily topical dose of 60 mg of 5% commercially available IMQ cream on the shaved back for 7 consecutive days. The same amount of Vaseline was applied to the same areas of the animals in the negative control group.
(§2) Vehicle and DF-6129 were dosed daily (po) for 8 days, from Day −1 to Day 7. Dosing time: 1 hour prior to IMQ application.
(§3) Animals were euthanized 4 h post last dosing on day 7 (3 h after applying with imiquimod cream) and back skin was be collected. The skin tissues were divided into two parts. One half was flash frozen and stored at −80° C. for PCR analysis (IL-17A, IL-17F, IL-22 and IL-23), the other half was fixed in 10% formalin for HE staining and scoring.
(§4) All statistical analysis were conducted, and the level of significance was set at P<0.05. The group means and standard deviation were calculated for all measurement parameters as study designed. One-way ANOVA comparisons among the groups was performed with software SPSS 16.0.

IL-22 = experiment: Back skin PCR analysis in IMQ-treated mice, IL-22 mRNA; assay type: in vivo; settings: 10 mg/kg, compared with vehicle treatment alone
Experimental: as §1, §2, §3, §4

IL-23 = experiment: Back skin PCR analysis in IMQ-treated mice, IL-23 mRNA; assay type: in vivo; settings: 10 mg/kg, compared with vehicle treatment alone
Experimental: as §1, §2, §3, §4

IL-17A, IL17F and IL-22 = settings: Gilan et al. 2020; cited from earlier work

Compound | IC50 (BRD4 BD2) | IC50 (MCP-1) | further results
Cn1ccn(-c2ccc(-c3cc(F)nc(-c4cccc(N5CCN(C(C)(C)C)CC5)c4)c3O)cc2Cl)c1=O [Example I-13, 1-(4-(2-(3-(4-(tert-butyl)piperazin-1-yl)phenyl)-6-fluoro-3-hydroxypyridin-4-yl)-2-chlorophenyl)-3-methyl-1,3-dihydro-2H-imidazol-2-one] | 83.6 nM | 16.7 nM | –
Cn1ccn(-c2ccc(-c3ccnc(-c4cccc(N5CCN(C(C)(C)C)CC5)c4)c3O)cc2Cl)c1=O [Example I-14, 1-(4-(2-(3-(4-(tert-butyl)piperazin-1-yl)phenyl)-3-hydroxypyridin-4-yl)-2-chlorophenyl)-3-methyl-1,3-dihydro-2H-imidazol-2-one] | 68.5 nM | 21.1 nM | –
CNC(=O)c1cc(C(=O)NC2CC2)cn(Cc2ccccc2)c1=O [GSK620] | – | – | expression of disease relevant pro-inflammatory genes, including IL-17A, IL17F and IL-22 (IL-17A, IL17F and IL-22): reduced the expression

Further compounds by falling IC50 (BRD4 BD2), results first:

IC50 (BRD4 BD2) | IC50 (MCP-1) | Compound | further results
4.31 nM | 4.72 nM | Cc1cc(-c2ccc(-n3ccn(C)c3=O)c(Cl)c2)c(O)c(-c2cc(F)cc(N3CCN(C(C)(C)C)CC3)c2)n1 [Example I-12, 1-(4-(2-(3-(4-(tert-butyl)piperazin-1-yl)-5-fluorophenyl)-3-hydroxy-6-methylpyridin-4-yl)-2-chlorophenyl)-3-methyl-1,3-dihydro-2H-imidazol-2-one] | –
0.323 nM | 1.51 nM | Cn1ccn(-c2ccc(-c3cc(F)cc(-c4cccc(N5CCN(C(C)(C)C)CC5)c4)c3O)cc2Cl)c1=O [Example I-1, 1-(3″-(4-(tert-butyl)piperazin-1-yl)-3-chloro-5′-fluoro-2′-hydroxy-[1,1′:3′,1″- terphenyl]-4-yl)-3-methyl-1,3-dihydro-2H-imidazol-2-one] | erythema [1]: significant decreases; scaling [1]: significant decreases; skin thickening [1]: significant decreases; total psoriasis (PASI) score [1]: significantly reduced; serum IL-17 levels (IL-17): significantly reduced; mRNA levels of IL-17A from the back skin (IL-17A): significantly reduced; mRNA levels of IL-22 from the back skin (IL-22): significantly reduced; mRNA levels of IL-23 from the back skin (IL-23): significantly reduced
0.152 nM | 1.09 nM | COc1ncc(-c2cc(F)cc(-c3ccc(-n4ccn(C)c4=O)c(Cl)c3)c2O)cc1N1CCN(C(C)(C)C)CC1 [Example I-15, 1-(3′-(5-(4-(tert-butyl)piperazin-1-yl)-6-methoxypyridin-3-yl)-3-chloro-5′-fluoro-2′-hydroxy-[1,1′-biphenyl]-4-yl)-3-methyl-1,3-dihydro-2H-imidazol-2-one] | –
